In patent US12479928B2, “Anti-cancer peptide” (Minerva Biotechnologies Corporation, priority 2014, dated 2025):
“Also recorded” adds a separate entry of the source.

Experiments:
[1] = molecular target: T1, binding of human NME1 to synthetic MUC1* peptide (Homo sapiens, UniProt P15941); assay: ELISA: inhibition of NME1 binding to immobilized MUC1* peptide; details: free peptides
T1 sequence (P15941 1110-1154 limits assumed): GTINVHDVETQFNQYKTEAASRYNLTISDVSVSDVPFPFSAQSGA
From the text: (§1) NME7 peptides were selected as immunizing agents for antibody production. NME7 peptides A1, A2, B1, B2 and B3 (FIG. 19) were chosen using a process of sequence alignment among human NME1, human NME7 and several bacterial NMEs that were homologous to human NME1 or human NME7. Five regions that had high sequence homology among all were identified. However, to prevent selecting peptides that would give rise to antibodies that would inhibit human NME1 as well as human NME7, we chose NME7 sequences that were adjacent to the homologous regions wherein those peptides had sequences that were different from human NME1. We did ELISA assays to see if the peptides on their own could bind to a synthetic MUC1* peptide on the surface and inhibit the binding of human NME7 or human NME1 to the immobilized peptide (FIG. 27).

[2] = molecular target: T2, binding of human NME7 to synthetic MUC1* peptide (Homo sapiens, UniProt P15941); assay: ELISA: inhibition of NME7 binding to immobilized MUC1* peptide; details: free peptides
T2 construct: made in house; host or cells: E. coli
T2 sequence (P15941 1110-1154 limits assumed): T1 sequence (P15941 1110-1154 limits assumed)
From the text: Those antibodies that inhibit cancer growth or transition to a more metastatic state are selected for use as anti-cancer therapeutics and may be administered to a patient for the treatment or prevention of cancers. Selected antibodies may be further optimized for example by engineering or making human chimera antibodies or fully human antibodies. […] We then generated antibodies using these peptides and then tested both the resultant antibodies as well as the immunizing peptides for their ability to: a) inhibit cancerous growth; and b) inhibit the induced transition from cancer cells to metastatic cancer cells. NME7 peptides were selected as immunizing agents for antibody production and as inhibitory agents themselves (FIG. 19 and Example 11). Peptides A1 (SEQ ID NO:141), A2 (SEQ ID NO:142), B1 (SEQ ID NO:143), B2 (SEQ ID NO:144) and B3 (SEQ ID NO:145), wherein A refers to the domain from which the peptide is derived, i.e. the NDPK A domain and the B denotes that the peptide is derived from the NDPK B domain (FIG. 15). Each peptide was used as an immunogen and injected into 2 rabbits each for production of polyclonal antibodies. The antibodies that were harvested from the blood of the immunized rabbits were purified over a column derivatized with the immunizing peptide. The purified antibodies were then tested for their ability to bind to human NME7. All of the resultant antibodies bound to human NME7 but not human NME1 as desired (FIG. 26A-B, Example 12). […] The antibodies were also tested for their ability to inhibit the binding of NME7 to a MUC1* extracellular domain peptide.
as §1

T47D breast cancer cells [3] = assay: Cancer cell growth inhibition by anti-NME7 specific antibodies and immunizing peptides (Example 13); format: cell-based, human; details: added separately; RPMI with serum
Protocol: Rabbits were immunized with NME7 peptides A1, A2, B1, B2, and B3 and antibodies were generated, collected and purified over a column to which the immunizing peptide had been conjugated. T47D breast cancer cells were plated and cultured according to ATCC protocols in RPMI media supplemented with serum. Immunizing peptides A1, A2, B1, B2, and B3, and the PSMGFR extracellular domain peptide of MUC1*, “FLR” here, were also added separately to growing T47D breast cancer cells. Taxol and the E6 anti-MUC1* Fab were added as controls. […] Note the comparison to inhibition using Taxol, which is a chemotherapy agent that kills healthy and cancer cells alike. Also, for comparison, a polyclonal antibody generated using a large stretch of NME7 from amino acid 100 to 376 is shown.
In a similar experiment, combinations of the antibodies generated from immunization with peptides A1, A2, B1, B2, and B3 as well as the peptides themselves were added to growing cancer cells at the concentrations indicated. […] In these two experiments, the cells were MUC1* positive breast cancer cells.

T47D breast cancer cells [4] = assay: Inhibition of NME7-AB or 2i induced transition of cancer cells to metastatic cancer cells (floaters, RT-PCR); format: cell-based, human; details: for expression of metastasis marker CXCR4 (RT-PCR) / floater cells (change from adherent cells to floaters): cells grown in NME7-AB or 2i; for floater cells (change from adherent cells to floaters): visual observation; for inhibition of transition to a more metastatic state (RT-PCR CXCR4, CHD1, SOX2): peptides alone, transition induced by 2i inhibitors
Protocol: In one example, NME7-AB specific antibodies, generated by immunization with NME7-derived peptides A1, A2, B1, B2 and B3, as well as the immunizing peptides themselves, were added into the media along with either NME7-AB or 2i to determine if they inhibited the transformation of regular cancer cells to metastatic cancer stem cells. Antibodies and peptides were separately added along with the agent that causes metastatic transformation; in this case NME7-AB or the 2i inhibitors PD0325901 and CHIR99021. NME7-AB and 2i were separately used to induce the cancer cells to be transformed to a more aggressive metastatic state. 2i was used so that it could not be argued that the antibodies that were added to the media simply sopped up all of the NME7-AB so that the causative agent effectively was not there (Example 14).
Visual observation was independently recorded by two scientists as the experiment progressed (FIG. 30). […] The amount of mRNA, which indicates cell viability and growth, was measured. […] RT-PCR was used to measure expression levels of metastatic markers, including CXCR4.
In another experiment, the free peptides A1, A2, B1, B2 and B3 were added to cancer cells in culture that were undergoing transition to a more metastatic state by culturing in either NME7-AB or 2i.
In the first of these experiments, the antibodies generated by immunization with A1, A2, B1, B2 and B3 were tested for their ability to inhibit the metastatic transition induced by culture of T47D breast cancer cells in NME7-AB or in 2i inhibitors.
RT-PCR was used to measure expression levels of metastatic markers, including CXCR4. […] (See FIG. 31). […] Peptide B3 was especially effective as was antibody #61 that it generated. […] The amount of mRNA, which indicates cell viability and growth, was measured.

[5] = tested on: Human stem cells (iPS cat #SC101a-1); assay: Human stem cell growth and pluripotency in NME7-AB or NM23-H1 dimers; format: cell-based; details: 8 nM in Minimal Stem Cell Media
Protocol: For testing recombinant NME7-AB for ability to maintain pluripotency and inhibit differentiation, a soluble variant of NME7, NME7-AB, was generated and purified. Human stem cells (iPS cat #SC101a-1, System Biosciences) were grown per the manufacturer's directions in 4 ng/ml bFGF over a layer of mouse fibroblast feeder cells for four passages. These source stem cells were then plated into 6-well cell culture plates (Vita™, Thermo Fisher) that had been coated with 12.5 ug/well of a monoclonal anti-MUC1* antibody, MN-C3. Cells were plated at a density of 300,000 cells per well. The base media was Minimal Stem Cell Media consisting of: 400 ml DME/F12/GlutaMAX I (Invitrogen #10565-018), 100 ml Knockout Serum Replacement (KO-SR, Invitrogen #10828-028), 5 ml 100×MEM Non-essential Amino Acid Solution (Invitrogen #11140-050) and 0.9 ml (0.1 mM) β-mercaptoethanol (55 mM stock, Invitrogen #21985-023). The base media can be any media. In a preferred embodiment, the base media is free of other growth factors and cytokines. To the base media was added either 8 nM of NME7-AB or 8 nM NM23-H1 refolded and purified as stable dimers. Media was changed every 48 hours and due to accelerated growth, had to be harvested and passaged at Day 3 post-plating.
Cell counts at the first harvest verified that culture in NME7 produced 1.4-times more cells than culture in NM23-H1 dimers.

Substance	inhibition of binding of NME1 to immobilized MUC1* peptide [1]	inhibition of binding of NME7 to immobilized MUC1* peptide [2]	inhibition of cancer cell growth (T47D breast cancer cells [3])	expression of metastasis marker CXCR4 (RT-PCR) (T47D breast cancer cells [4])	floater cells (change from adherent cells to floaters) (T47D breast cancer cells [4])	inhibition of transition to a more metastatic state (RT-PCR CXCR4, CHD1, SOX2) (T47D breast cancer cells [4])	pluripotent stem cell growth / differentiation [5]
AIFGKTKIQNAVHCTDLPEDGLLEVQYFF (peptide B3)	inhibited the binding	inhibited the binding	potently inhibited the growth	inhibited the increase in expression	inhibited the morphological change	potently inhibit; also recorded: most inhibitory	
DAGFEISAMQMFNMDRVNVE (peptide B1)	inhibited the binding	inhibited the binding	potently inhibited the growth	inhibited the increase in expression	inhibited the morphological change	potently inhibit	
EVYKGVVTEYHDMVTE (peptide B2)	inhibited the binding	inhibited the binding	potently inhibited the growth	inhibited the increase in expression	inhibited the morphological change	potently inhibit	
MLSRKEALDFHVDHQS (peptide A1)	inhibited the binding	inhibited the binding	potently inhibited the growth	inhibited the increase in expression	inhibited the morphological change	potently inhibit	
NM23-H1 (NME1) dimers: NM23-H1 refolded and purified as stable dimers							no differentiation even when 100% confluent
SGVARTDASES (peptide A2)	inhibited the binding	inhibited the binding	potently inhibited the growth	inhibited the increase in expression	inhibited the morphological change	potently inhibit	
